{
  "source": "patent US8759342B2",
  "about": "“Benzo[1,4]oxazin-3-one, benzo[1,4]thiazin-3-one and quinolin-2-one urotensin II receptor antagonists” (Janssen Pharmaceutica NV, priority 2006, dated 2014)",
  "key": {"[1]": {"target": "T1, rat GPR14 (U-II receptor) (Rattus norvegicus, UniProt P49684)", "T1 construct": "expressed in transfected cells", "T1 sequence (P49684 1-386)": "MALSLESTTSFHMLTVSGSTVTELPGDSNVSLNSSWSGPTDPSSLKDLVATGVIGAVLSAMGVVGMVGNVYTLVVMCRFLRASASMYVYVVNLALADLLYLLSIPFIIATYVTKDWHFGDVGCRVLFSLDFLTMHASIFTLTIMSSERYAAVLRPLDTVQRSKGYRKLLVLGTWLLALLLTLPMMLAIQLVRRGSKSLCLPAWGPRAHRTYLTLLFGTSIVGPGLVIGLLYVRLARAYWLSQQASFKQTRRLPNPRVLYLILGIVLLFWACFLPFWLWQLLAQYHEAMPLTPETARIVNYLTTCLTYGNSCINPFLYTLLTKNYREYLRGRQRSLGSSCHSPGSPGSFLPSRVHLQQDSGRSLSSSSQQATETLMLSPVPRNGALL", "assay": "Calcium flux assay (FLIPR)", "format": "cell-based", "details": "Inhibition of acetyl-cyclic[Cys-Phe-Trp-Lys-(2-Nal)-Cys]-NH2 (1 nM) induced Ca2+ mobilization (FLIPR) in CHO cells transfected with rat UII receptor; 5 min incubation", "how_it_was_run": "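Stable CHO cell line expressing cloned rat U-II receptor, seeded 24 h before assay, loaded with FLIPR calcium dye in HBSS/20 mM HEPES/0.1% BSA/2.5 mM probenecid, pH 7.4, for 1 hr at 37° C. Calcium mobilization read at room temperature (23° C.).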"}, "Human UII receptors": {"target": "T2, Human UII receptors (Homo sapiens, UniProt Q9UKP6)", "T2 construct": "host or cells: Human Skeletal Muscle Myoblasts (HSMM), intact adherent cells", "T2 sequence (Q9UKP6 1-389)": "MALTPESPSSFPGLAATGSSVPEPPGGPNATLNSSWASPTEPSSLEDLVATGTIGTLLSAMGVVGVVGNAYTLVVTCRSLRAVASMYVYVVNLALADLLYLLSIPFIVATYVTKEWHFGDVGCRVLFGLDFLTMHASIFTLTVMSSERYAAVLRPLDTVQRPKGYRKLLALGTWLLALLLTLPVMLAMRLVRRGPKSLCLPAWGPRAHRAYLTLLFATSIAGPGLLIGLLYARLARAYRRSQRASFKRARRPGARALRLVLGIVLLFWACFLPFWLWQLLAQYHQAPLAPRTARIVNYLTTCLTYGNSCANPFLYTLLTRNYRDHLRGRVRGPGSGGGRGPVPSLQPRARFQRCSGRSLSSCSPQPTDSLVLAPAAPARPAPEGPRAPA", "assay": "Human radioligand binding assay, (125I)-U-II on HSMM", "procedure": "Human Skeletal Muscle Myoblasts (HSMM) were obtained from Cambrex, and were cultured according to manufacturer's instruction. Cell viability was examined by trypan blue exclusion. Cells at less than 4 passages were used in all studies. […] The binding medium used was Dulbecco's modified Eagle's medium (DMEM) containing 2 mg/ml BSA and 25 mM HEPES (pH 7.4). […] The cells were washed 4× with the binding medium and solubilized in 1% SDS and 0.5 N NaOH. Radioactivity was quantified by gamma counting."}, "[2]": {"details": "0.150 nM (125I)-U-II, intact Human Skeletal Muscle Myoblasts, 3 hrs, 25° C., read-out: Ki"}},
  "note": "Read-outs that look alike come from different tables or passages of the source.",
  "data": [
    {"smiles": "CC(C)(C)OC(=O)NCCCCNC(=O)c1cc(Cl)ccc1C1CCN(CCN2C(=O)COc3ccccc32)CC1", "note": "[Cpd 60, [4-(5-chloro-2-{1-[2-(3-oxo-2,3-dihydro-benzo[1,4]oxazin-4-yl)-ethyl]-piperidin-4-yl}-benzoylamino)-butyl]-carbamic acid tert-butyl ester]", "values": [
      {"measurement": "IC50", "setting": "[1]", "result": 500, "unit": "nM"},
      {"measurement": "Ki", "setting": "Human UII receptors; [2]", "result": 150, "unit": "nM"}
    ]},
    {"smiles": "O=C(NCCc1ccc2ccccc2c1)c1cc(Cl)ccc1C1CCN(CCN2C(=O)COc3ccccc32)CC1", "note": "[Cpd 61, 5-chloro-N-(2-naphthalen-2-yl-ethyl)-2-{1-[2-(3-oxo-2,3-dihydro-benzo[1,4]oxazin-4-yl)-ethyl]-piperidin-4-yl}-benzamide]", "values": [
      {"measurement": "IC50", "setting": "[1]", "result": 2000, "unit": "nM"},
      {"measurement": "Ki", "setting": "Human UII receptors; [2]", "result": 260, "unit": "nM"}
    ]},
    {"smiles": "O=C(NCC1CCN(C(=O)OCc2ccccc2)CC1)c1cc(Cl)ccc1C1CCN(CCN2C(=O)COc3ccccc32)CC1", "note": "[Cpd 63, 4-[(5-chloro-2-{1-[2-(3-oxo-2,3-dihydro-benzo[1,4]oxazin-4-yl)-ethyl]-piperidin-4-yl}-benzoylamino)-methyl]-piperidine-1-carboxylic acid benzyl ester]", "values": [
      {"measurement": "IC50", "setting": "[1]", "result": 400, "unit": "nM"},
      {"measurement": "Ki", "setting": "Human UII receptors; [2]", "result": 54, "unit": "nM"}
    ]},
    {"smiles": "CC(C)(C)CC(=O)N1CCC(CNC(=O)c2cc(Cl)ccc2C2CCN(CCN3C(=O)COc4ccccc43)CC2)CC1", "note": "[Cpd 65, 5-chloro-N-[1-(3,3-dimethyl-butyryl)-piperidin-4-ylmethyl]-2-{1-[2-(3-oxo-2,3-dihydro-benzo[1,4]oxazin-4-yl)-ethyl]-piperidin-4-yl}-benzamide]", "values": [
      {"measurement": "IC50", "setting": "[1]", "result": 330, "unit": "nM"},
      {"measurement": "Ki", "setting": "Human UII receptors; [2]", "result": 32, "unit": "nM"}
    ]},
    {"smiles": "CC(C)(C)OC(=O)N1CCN(CCNC(=O)c2cc(Cl)ccc2C2CCN(CCN3C(=O)COc4ccccc43)CC2)CC1", "note": "[Cpd 66, 4-[2-(5-chloro-2-{1-[2-(3-oxo-2,3-dihydro-benzo[1,4]oxazin-4-yl)-ethyl]-piperidin-4-yl}-benzoylamino)-ethyl]-piperazine-1-carboxylic acid tert-butyl ester]", "values": [
      {"measurement": "IC50", "setting": "[1]", "result": 15, "unit": "nM"},
      {"measurement": "Ki", "setting": "Human UII receptors; [2]", "result": 57, "unit": "nM"}
    ]},
    {"smiles": "O=C(NCC1CCN(C(=O)NCc2ccccc2)CC1)c1cc(Cl)ccc1C1CCN(CCN2C(=O)COc3ccccc32)CC1", "note": "[Cpd 67, 4-[(5-chloro-2-{1-[2-(3-oxo-2,3-dihydro-benzo[1,4]oxazin-4-yl)-ethyl]-piperidin-4-yl}-benzoylamino)-methyl]-piperidine-1-carboxylic acid benzylamide]", "values": [
      {"measurement": "IC50", "setting": "[1]", "result": 210, "unit": "nM"},
      {"measurement": "Ki", "setting": "Human UII receptors; [2]", "result": 30, "unit": "nM"}
    ]},
    {"smiles": "CC(C)(C)OC(=O)N1CCC(CCNC(=O)c2cc(Cl)ccc2C2CCN(CCN3C(=O)COc4ccccc43)CC2)CC1", "note": "[Cpd 68, 4-[2-(5-chloro-2-{1-[2-(3-oxo-2,3-dihydro-benzo[1,4]oxazin-4-yl)-ethyl]-piperidin-4-yl}-benzoylamino)-ethyl]-piperidine-1-carboxylic acid tert-butyl ester]", "values": [
      {"measurement": "IC50", "setting": "[1]", "result": 100, "unit": "nM"},
      {"measurement": "Ki", "setting": "Human UII receptors; [2]", "result": 47, "unit": "nM"}
    ]},
    {"smiles": "O=C(NCCCCNC(=O)c1cc(Cl)ccc1C1CCN(CCN2C(=O)COc3ccccc32)CC1)OCc1ccccc1", "note": "[Cpd 69, [4-(5-chloro-2-{1-[2-(3-oxo-2,3-dihydro-benzo[1,4]oxazin-4-yl)-ethyl]-piperidin-4-yl}-benzoylamino)-butyl]-carbamic acid benzyl ester]", "values": [
      {"measurement": "IC50", "setting": "[1]", "result": 150, "unit": "nM"},
      {"measurement": "Ki", "setting": "Human UII receptors; [2]", "result": 62, "unit": "nM"}
    ]},
    {"smiles": "CC(C)(C)OC(=O)NCCCCCNC(=O)c1cc(Cl)ccc1C1CCN(CCN2C(=O)COc3ccccc32)CC1", "note": "[Cpd 70, [5-(5-chloro-2-{1-[2-(3-oxo-2,3-dihydro-benzo[1,4]oxazin-4-yl)-ethyl]-piperidin-4-yl}-benzoylamino)-pentyl]-carbamic acid tert-butyl ester]", "values": [
      {"measurement": "IC50", "setting": "[1]", "result": 32, "unit": "nM"},
      {"measurement": "Ki", "setting": "Human UII receptors; [2]", "result": 25, "unit": "nM"}
    ]},
    {"smiles": "O=C(NCC1CCN(S(=O)(=O)Cc2ccccc2)CC1)c1cc(Cl)ccc1C1CCN(CCN2C(=O)COc3ccccc32)CC1", "note": "[Cpd 72, 5-chloro-2-{1-[2-(3-oxo-2,3-dihydro-benzo[1,4]oxazin-4-yl)-ethyl]-piperidin-4-yl}-N-(1-phenylmethanesulfonyl-piperidin-4-ylmethyl)-benzamide]", "values": [
      {"measurement": "IC50", "setting": "[1]", "result": 53, "unit": "nM"},
      {"measurement": "Ki", "setting": "Human UII receptors; [2]", "result": 30, "unit": "nM"}
    ]},
    {"smiles": "CC(C)(C)OC(=O)NCCCCCCNC(=O)c1cc(Cl)ccc1C1CCN(CCN2C(=O)COc3ccccc32)CC1", "note": "[Cpd 74, [6-(5-chloro-2-{1-[2-(3-oxo-2,3-dihydro-benzo[1,4]oxazin-4-yl)-ethyl]-piperidin-4-yl}-benzoylamino)-hexyl]-carbamic acid tert-butyl ester]", "values": [
      {"measurement": "IC50", "setting": "[1]", "result": 45, "unit": "nM"},
      {"measurement": "Ki", "setting": "Human UII receptors; [2]", "result": 100, "unit": "nM"}
    ]},
    {"smiles": "O=C(NCCCCCNC(=O)c1cc(Cl)ccc1C1CCN(CCN2C(=O)COc3ccccc32)CC1)OCc1ccccc1", "note": "[Cpd 75, [5-(5-chloro-2-{1-[2-(3-oxo-2,3-dihydro-benzo[1,4]oxazin-4-yl)-ethyl]-piperidin-4-yl}-benzoylamino)-pentyl]-carbamic acid benzyl ester]", "values": [
      {"measurement": "IC50", "setting": "[1]", "result": 40, "unit": "nM"},
      {"measurement": "Ki", "setting": "Human UII receptors; [2]", "result": 34, "unit": "nM"}
    ]},
    {"smiles": "CC(C)(C)CC(=O)NCCCCCNC(=O)c1cc(Cl)ccc1C1CCN(CCN2C(=O)COc3ccccc32)CC1", "note": "[Cpd 76, 5-chloro-N-[5-(3,3-dimethyl-butyrylamino)-pentyl]-2-{1-[2-(3-oxo-2,3-dihydro-benzo[1,4]oxazin-4-yl)-ethyl]-piperidin-4-yl}-benzamide]", "values": [
      {"measurement": "IC50", "setting": "[1]", "result": 150, "unit": "nM"},
      {"measurement": "Ki", "setting": "Human UII receptors", "result": 43, "unit": "nM"}
    ]},
    {"smiles": "O=C(NCCCCCNC(=O)c1cc(Cl)ccc1C1CCN(CCN2C(=O)COc3ccccc32)CC1)NCc1ccccc1", "note": "[Cpd 77, N-[5-(3-benzyl-ureido)-pentyl]-5-chloro-2-{1-[2-(3-oxo-2,3-dihydro-benzo[1,4]oxazin-4-yl)-ethyl]-piperidin-4-yl}-benzamide]", "values": [
      {"measurement": "IC50", "setting": "[1]", "result": 27, "unit": "nM"},
      {"measurement": "Ki", "setting": "Human UII receptors; [2]", "result": 37, "unit": "nM"}
    ]},
    {"smiles": "O=C(NCCCCCNS(=O)(=O)Cc1ccccc1)c1cc(Cl)ccc1C1CCN(CCN2C(=O)COc3ccccc32)CC1", "note": "[Cpd 78, 5-chloro-2-{1-[2-(3-oxo-2,3-dihydro-benzo[1,4]oxazin-4-yl)-ethyl]-piperidin-4-yl}-N-(5-phenylmethanesulfonylamino-pentyl)-benzamide]", "values": [
      {"measurement": "IC50", "setting": "[1]", "result": 100, "unit": "nM"},
      {"measurement": "Ki", "setting": "Human UII receptors; [2]", "result": 40, "unit": "nM"}
    ]},
    {"smiles": "CC(C)(C)OC(=O)NCCOCCNC(=O)c1cc(Cl)ccc1C1CCN(CCN2C(=O)COc3ccccc32)CC1", "note": "[Cpd 79, {2-[2-(5-chloro-2-{1-[2-(3-oxo-2,3-dihydro-benzo[1,4]oxazin-4-yl)-ethyl]-piperidin-4-yl}-benzoylamino)-ethoxy]-ethyl}-carbamic acid tert-butyl ester]", "values": [
      {"measurement": "IC50", "setting": "[1]", "result": 37, "unit": "nM"},
      {"measurement": "Ki", "setting": "Human UII receptors", "result": 53, "unit": "nM"}
    ]},
    {"smiles": "O=C(NCCCCCNC(=O)c1cc(Cl)ccc1C1CCN(CCN2C(=O)COc3ccccc32)CC1)NCCc1ccccc1", "note": "[Cpd 82, 5-chloro-2-{1-[2-(3-oxo-2,3-dihydro-benzo[1,4]oxazin-4-yl)-ethyl]-piperidin-4-yl}-N-[5-(3-phenethyl-ureido)-pentyl]-benzamide]", "values": [
      {"measurement": "IC50", "setting": "[1]", "result": 170, "unit": "nM"},
      {"measurement": "Ki", "setting": "Human UII receptors; [2]", "result": 120, "unit": "nM"}
    ]},
    {"smiles": "CC(C)(C)OC(=O)NCCCCCNC(=O)c1cc(Cl)ccc1C1CCN(CCN2C(=O)CCc3ccccc32)CC1", "note": "[Cpd 83, [5-(5-chloro-2-{1-[2-(2-oxo-3,4-dihydro-2H-quinolin-1-yl)-ethyl]-piperidin-4-yl}-benzoylamino)-pentyl]-carbamic acid tert-butyl ester]", "values": [
      {"measurement": "IC50", "setting": "[1]", "result": 360, "unit": "nM"},
      {"measurement": "Ki", "setting": "Human UII receptors; [2]", "result": 220, "unit": "nM"}
    ]},
    {"smiles": "CC(CN1C(=O)COc2ccccc21)N1CCC(c2ccc(Cl)cc2C(=O)NCC2CCN(S(=O)(=O)Cc3ccccc3)CC2)CC1", "note": "(centres unmarked) [Cpd 84, 5-chloro-2-{1-[1-methyl-2-(3-oxo-2,3-dihydro-benzo[1,4]oxazin-4-yl)-ethyl]-piperidin-4-yl}-N-(1-phenylmethanesulfonyl-piperidin-4-ylmethyl)-benzamide]", "values": [
      {"measurement": "IC50", "setting": "[1]", "result": 2000, "unit": "nM"},
      {"measurement": "Ki", "setting": "Human UII receptors; [2]", "result": 210, "unit": "nM"}
    ]}
  ]
}
